Measurements published in ChEMBL document CHEMBL3507680, “University of Dundee, Gates Library screen for HepG2 cell viability”.

Experiment: Human HepG2 cell viability assay in 384 well format
Format: toxicity, cell-based
Design: dose 125 nL, time 70.5 hour; concentration not given beside the values
Conditions: HepG2 cells, read-out: Inhibition

Structure (SMILES) | cytotoxicity at 70.5 h [%]
C/N=C1\c2cc3cc(OC)ccc3n2CCN1C | -6.1
CCOC1CC2(CCN(Cc3cnn(C)c3)CC2)c2ccc(C)cc21 (stereo not drawn) | 1.09
CCCN1CCC2(C1)c1ccccc1S(=O)(=O)N2Cc1ccc(F)cc1 (stereo not drawn) | -1.79
CCOC(=O)C1CN(S(C)(=O)=O)Cc2ncn(CC)c21 (stereo not drawn) | -0.182
Cc1ccc(NC(=O)c2nc3c(s2)CCCN3C(C)C)cn1 | -0.97
c1coc(CN2CCn3c(CN4CCOCC4)nnc3C2)c1 | -1.27
Cc1noc([C@]23COC[C@H]2CN(S(C)(=O)=O)C3)n1 | -1.56
CCOC1CC2(CCN(CCO)CC2)c2ccc(C)cc21 (stereo not drawn) | 1.71
CN(C)C(=O)NCc1nnc2n1CCN(Cc1ccsc1)C2 | 3.34
O=C(c1cc(-c2ccn(CC3CC3)n2)n2ccccc12)N1CCOCC1 | -2.8
CN(C)C[C@H]1OC[C@@H]2CCN(C(=O)NCc3cccc(F)c3)C[C@@H]21 | -5.72
O=C(C1CN(Cc2ccoc2)CC12CCOCC2)N1CCCC1 (stereo not drawn) | 7.01
O=C(O)c1cc(-c2ccn(CC3CC3)n2)n2ccccc12 | -1.77
CC(=O)N1CC[C@H]2C(=O)N(c3ccsc3)CCO[C@H]2C1 | -2.46
CS(=O)(=O)NCc1noc2c1CN(C(=O)c1ccsc1)CC2 | -7.43
O=C(NCc1ccco1)N1CCCCC1c1nc(-c2ccncc2)no1 (stereo not drawn) | -12.6
Cc1ccc(N2N=C(C(=O)O)S(=O)(=O)c3cccnc32)cc1 | -8.77
CCc1nn2c(=N)c(C#N)n[nH]c2c1-c1ccc(OC)cc1 | -18.3
Cn1c(=O)n(C)c2cc(NS(=O)(=O)Cc3ccccc3)ccc21 | -6.3
COc1ccc(-c2c(C(C)C)nn3c(=N)c(C#N)n[nH]c23)cc1 | -20.1
COc1ccc(-c2c(C)nn3c(=N)c(C#N)n[nH]c23)cc1OC | -15.3
Cc1noc2nc3c(c(C(=O)/N=c4\[nH]ncs4)c12)CCC3 | 25.6
COC(=O)CC1CCN(C(=O)c2ccc(-n3nnnc3C)cc2)CC1 | -11.6

Structure (SMILES) | cytotoxicity at 70.5 h [%]
O=c1cc(-c2ccc(F)cc2)nc2n1CCCCC2 | -14
COC(=O)c1cc2c(OC)c(OC)c(OC)cc2[nH]1 | -19.4
COC(=O)c1cc2c(OC)c(C)c(OC)cc2[nH]1 | -9.36
CCOC(=O)Cn1cccc(S(=O)(=O)N2CCCC2)c1=O | -26.6
O=S(=O)(NC1=NCN(CCc2cccs2)CN1)c1ccc(Cl)cc1 | -14.8
NC(=O)C1CCN(C(=O)CCn2ccc3ccc(Br)cc32)CC1 | -33.3
CN(C(=O)Cn1nc(-c2ccc(Br)cc2)ccc1=O)C1CCS(=O)(=O)C1 (stereo not drawn) | -22.4
O=C(NCCCN1CCCC1=O)c1nc(-c2ccc3[nH]ccc3c2)no1 | -29.3
O=C(NCCN1CCCCC1)c1nc(-c2cccc3[nH]ccc23)no1 | 13.5
CNc1oc(-c2cc(S(=O)(=O)N3CCCC3)c(C)o2)nc1C#N | -25
COCCNC(=O)c1nc(-c2ccc3cc[nH]c3c2)no1 | -17.1
CC(O)CNC(=O)CCc1nc2ncccc2[nH]1 (stereo not drawn) | -29.9
O=C(NCCCO)c1nc(-c2ccc3cc[nH]c3c2)no1 | -7.51
CC(C)CCNC(=O)C1CCN(c2ccc3nnc(C(C)C)n3n2)CC1 | -30
O=C1CC(c2ccc(O)cc2)c2c(n3ccsc3nc2=O)N1 (stereo not drawn) | -29.2
CC(C)n1c(=O)nc2n1C(=O)N(c1ccc(Br)cc1)C2 | -16.1
Cc1oc(-c2nc(C#N)c(NC(C)C)o2)cc1S(=O)(=O)N1CCCCC1 | -21.8
CN(C(=O)Cn1nc(-c2ccccc2Cl)ccc1=O)C1CCS(=O)(=O)C1 (stereo not drawn) | -18.5
Cc1oc(-c2nc(C#N)c(NC3CC3)o2)cc1S(=O)(=O)N1CCCC1 | -25.9
CN1CCN(Cn2nc(-c3cccs3)ccc2=O)CC1 | -29.8
COc1ccc(C)cc1-c1csc(N)c1C#N | 13.2
COc1ccc(-c2csc(N)c2C#N)cc1 | -24.3
O=C1C(CS(=O)(=O)Nc2ccccc2)=NC(=O)n2cccc21 | -7.6

Structure (SMILES) | cytotoxicity at 70.5 h [%]
CC(C)c1ccc(NS(=O)(=O)CC2=NC(=O)n3cccc3C2=O)cc1 | -18.1
O=C1C(CS(=O)(=O)Nc2ccc(Cl)cc2)=NC(=O)n2cccc21 | -26.2
Cc1cccc(NC2CCc3c2[nH]c(=O)n(C2CCCCC2)c3=O)c1C (stereo not drawn) | -19.3
OCCNc1nc(Nc2ccccc2)c2nccnc2n1 | -0.149
CCn1nc2ccc(S(=O)(=O)N3CCSCC3)cn2c1=O | -9.47
Cc1cc(SCC(N)=O)nc(-c2ccc(F)cc2)n1 | -9.61
CC(C)(C)c1noc(-c2ccnc(-n3cnc(C(=O)O)c3)c2)n1 | -4.5
O=C(O)c1cc(-c2ccccc2)ns1 | -20.2
CC(C)c1noc(-c2ccc(-n3cnc(C(=O)O)c3)nc2)n1 | -15.8
CC(C)c1noc(-c2ccnc(-n3cnc(C(=O)O)c3)c2)n1 | -14.7
O=C(c1cnc2ccc(Cl)cc2c1NCc1ccco1)N1CCCCC1 | 23.3
COc1cccc(C(c2c(C)n[nH]c2O)c2c(C)n[nH]c2O)c1OC | -11.7
CCc1c(C)n(CC(C)=O)c2nc3ccccc3n2c1=O | -18.1
Cc1c(C(=O)N2CCN(c3ncccn3)CC2)n(C)c2ccc(Cl)cc12 | -7.85
CC(=O)c1cccc(-n2nc(C(C)=O)c(C(C)=O)c2C)c1 | -2.25
CC(=O)c1nn(-c2ccccc2Cl)c(C)c1C(C)=O | -10.3
COC(=O)CC(c1ccc(OC)c(OC)c1OC)c1c(O)n[nH]c1C (stereo not drawn) | -15.1
CC(C)CC(NC(=O)Nc1ccc(F)c(Cl)c1)C(=O)O (stereo not drawn) | -8.78
CC(=O)c1nn(-c2cccc(Cl)c2)c(C)c1C(C)=O | -12.9
OCCNc1nc(NCc2cccnc2)nc2nccnc12 | 16.3
COCCNc1nc(NCCc2ccccc2)nc2nccnc12 | -1.44
COc1ccc(-c2nnsc2C(=O)N2CCN(C(C)=O)CC2)cc1 | -12.8
COc1cc(C2CC(=O)Nc3c2c(=O)[nH]n3C2CCCCC2)ccc1O (stereo not drawn) | -12.4

Structure (SMILES) | cytotoxicity at 70.5 h [%]
Cc1nc(CC(=O)N2CCC(c3ccn4nccc4n3)CC2)cs1 | 1.76
CCC(=O)NC(Cc1cc(N(C)C)nc(C2CC2)n1)c1ccccc1 (stereo not drawn) | -2.39
CS(=O)(=O)N1CCc2ccc(C(=O)N3CCn4ncnc4C3)cc21 | -1.85
Cc1cc(=O)[nH]c(NC2CCN(S(=O)(=O)c3ccccc3)CC2)n1 | -2.77
Cc1nc2c(c(=O)[nH]1)CN(Cc1ccc3c(c1)CCCN3C)CC2 | 1.02
O[C@@H]1C[C@H]2CN(Cc3ccccc3)[C@H](Cc3ccccc3)CN2C1 | 27.4
Cc1ccc(-c2nc(C3CCN(C(=O)c4cnn(C)c4)CC3)no2)cn1 | 24.5
Cc1nc(C)c(C(=O)N2CCc3nnc(C4CCCCN4C)n3CC2)s1 (stereo not drawn) | -8.99
COc1cc(CN2CCCC[C@]3(C)NC(=O)CC[C@H]23)ccc1F | -6.42
COCCC(=O)NCc1ccc(-c2ccccc2C(=O)O)cn1 | -6.35
Fc1ccc(Nc2ccc(C3CCN(Cc4ncc[nH]4)CC3)nc2)nc1 | -4.32
O=C(c1cnco1)N1CCC(Cc2cccc3ncccc23)CC1 | 20.4
COCCC(=O)N1CCC(c2nnc(-c3ccsc3)o2)CC1 | -6.73
Oc1cc(C2CCCCN2Cc2cccs2)nc(-c2ccncc2)n1 (stereo not drawn) | -11.8
Cc1ccc(-c2noc(C3CCN3C(=O)c3c(C)noc3C)n2)s1 (stereo not drawn) | -3.14
CC(=O)N1CCC(C(=O)N2CCC2c2nc(-c3ccc(C)s3)no2)CC1 (stereo not drawn) | 9.04
Cc1noc(C)c1C(=O)N1CCC(c2cc3cnccc3[nH]2)CC1 | -5.78
CN1CC2(CCN(Cc3cccnc3)CC2)c2cccc(F)c21 | -2.73
Cc1ccc(C)c(CSc2nnc(C(N)Cc3ccccc3)o2)c1 (stereo not drawn) | -14.6
CC(CNCc1ccc(Cl)cc1)Oc1ccccn1 (stereo not drawn) | -10
CC(CNCc1ccc2c(c1)n(C)c(=O)n2C)Oc1ccccn1 (stereo not drawn) | -24.7
c1cc(NCc2ccncc2)nc(C2CCCN2)c1 (stereo not drawn) | 2.66
CC(C)OCc1ncn2c1CN(CCO)CCC2 | -0.995

Structure (SMILES) | cytotoxicity at 70.5 h [%]
CS(=O)(=O)NCc1cc(=O)n2c(n1)CN(Cc1ccco1)CCC2 | -1.24
CC(C)N1CCO[C@H]2CN(C(=O)Cc3cccs3)C[C@H]21 | -3.28
COCCN1CCO[C@@H]2CN(C(=O)Cc3ccccc3)CC[C@@H]2C1 | -0.0515
CN(C)C(=O)COCc1nnc2n1CCN(Cc1ccoc1)C2 | -3.1
OCCN1CCOC2(CCCN(c3ncc(F)cn3)C2)C1 (stereo not drawn) | -3.36
CN1CCCn2c(nc(CNS(=O)(=O)C3CC3)cc2=O)C1 | -1.98
O=C(C1CN(CC2CCOCC2)CC12CCOCC2)N1CCCC1 (stereo not drawn) | -2.27
CC(C)Nc1nc2c(c(N(C)C)n1)CCN(Cc1nccn1C)CC2 | 10.1
Cc1cnc(N2CCC3(CC2)CN(c2ccsc2)C(=O)CO3)nc1 | -5
COCCN1CCN(S(C)(=O)=O)Cc2ccc(C)nc21 | -2.02
CCCS(=O)(=O)N1CCN(CCOC)c2nc(C)ccc2C1 | -8.9
CCN1CCOCC12CCN(C(=O)Cc1cccs1)CC2 | -8.5
Cc1ccc2c(n1)N(CC1CC1)CCN(S(=O)(=O)C1CC1)C2 | -5.85
Fc1ccc(CNCC2Cn3nncc3CO2)cc1 (stereo not drawn) | -7.4
Cc1ccc(NCc2cn3c(n2)CN(Cc2ccc(C)o2)CC3)nn1 | -4.46
Cc1ccc2c(c1)C(N(C)C)CC21CCN(CCO)CC1 (stereo not drawn) | -0.704
CN1[C@H](Cn2cncn2)C[C@@H]2CN(C3CCOCC3)CC[C@@H]21 | 0.159
Fc1ccc(CN2CCC3(CC2)CCN(Cc2nccs2)CC3)cc1 | 1.45
c1ccc(OCc2nnc3n2CCN(Cc2ccco2)C3)nc1 | -2.29
COCC(=O)N1CCCC2(COCCN(CCN(C)C)C2)C1 (stereo not drawn) | 8.27
CNC(=O)c1cnc2n1CCN(Cc1cccnc1)C2 | -2.74
